According to patent publication US6492374B2, “Benzofuran derivatives, their preparation and use” (H. Lundbeck A/S, priority 1998, dated 2002):
pIC50: −log10 of the molar value.

What was measured:
[1] = target: T1, cloned human 5-HT1A receptors (Homo sapiens, UniProt P08908); assay: Inhibition of 3H-5-CT binding to human 5-HT1A receptors; details: cloned human 5-HT1A receptors expressed in HeLa cells (HA7)
T1 construct: expressed in transfected cells; host or cells: HeLa cells (HA7), stably transfected; cell homogenate
T1 sequence (P08908 1-422): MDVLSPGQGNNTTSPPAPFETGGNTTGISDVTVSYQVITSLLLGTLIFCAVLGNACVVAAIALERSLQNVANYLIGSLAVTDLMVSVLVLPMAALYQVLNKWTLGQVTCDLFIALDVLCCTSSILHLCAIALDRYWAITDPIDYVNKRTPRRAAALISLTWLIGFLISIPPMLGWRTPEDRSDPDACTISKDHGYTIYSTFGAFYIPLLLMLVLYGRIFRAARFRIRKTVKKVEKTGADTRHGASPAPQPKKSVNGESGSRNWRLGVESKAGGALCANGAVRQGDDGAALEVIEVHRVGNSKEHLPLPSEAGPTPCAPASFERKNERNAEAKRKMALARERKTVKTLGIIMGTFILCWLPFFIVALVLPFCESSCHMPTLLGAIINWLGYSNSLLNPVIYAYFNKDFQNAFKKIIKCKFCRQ
Procedure: Inhibition of ^3H-5CT Binding to Human 5-HT1A Receptors
Human 5-HT1A receptors (40 μg of cell homogenate) were incubated for 15 minutes at 37° C. in 50 mM Tris buffer at pH 7.7 in the presence of ^3H-5-CT. Non-specific binding was determined by including 10 μM of metergoline. The reaction was terminated by rapid filtration through Unifilter GF/B filters on a Tomtec Cell Harvester. Filters were counted in a Packard Top Counter.

[2] = tested on: serotonin reuptake (3H-5-HT uptake into whole rat brain synaptosomes); assay: Inhibition of 3H-5-HT uptake into rat brain synaptosomes; format: biochemical
Procedure: Inhibition of ^3H-5HT Uptake Into Rat Brain Synaptosomes
Using this method, the ability of drugs to inhibit the accumulation of ^3H-5-HT into whole rat brain synaptosomes is determined in vitro.

melting point [°C] | SMILES | pIC50 [1] | Inhibition of serotonin reuptake % inhibition at 100 nM [2] [% inh. at 100 nM] | pIC50 [2]
160 to 162 | CN(CCCC1(c2ccc(F)cc2)OCc2cc(C#N)ccc21)Cc1cccc2c1OCCO2.O=C(O)C(=O)O (stereo not drawn) |  |  | 
131 to 133 | CN(CCCc1cccc2c1OCCO2)CCCC1(c2ccc(F)cc2)OCc2cc(F)ccc21.O=C(O)C(=O)O (stereo not drawn) |  |  | 
114 to 116 | CN(CCCc1cccc2c1OCCO2)CCCC1(c2ccc(F)cc2)OCc2cc(C#N)ccc21.O=C(O)C(=O)O (single isomer, unassigned; (+)) [Compound 1b, (+)-1-[3-[[3-(1,4-Benzodioxan-5-yl)propyl]methylamino]propyl]-1-(4-fluorophenyl)-1,3-dihydroisobenzofuran-5-carbonitrile oxalate] | 7.92 |  | 
118 to 120 | CN(CCCC1(c2ccc(F)cc2)OCc2cc(C#N)ccc21)CCc1cccc2c1OCCO2.O=C(O)C(=O)O (stereo not drawn) [Compound 1c, 1-[3-[[2-(1,4-Benzodioxan-5-yl)ethyl]methylamino]propyl]-1-(4-fluorophenyl)-1,3-dihydroisobenzofuran-5carbonitrile oxalate] | 7.28 |  | 
 | CCN(CCCc1c[nH]c2ccc(C)cc12)CCCC1(c2ccc(F)cc2)OCc2cc(C#N)ccc21 (stereo not drawn) [Compound 12o, 1-[3-[Ethyl[3-(5-methyl-1H-indol-3-yl)propyl]amino]propyl]-1-(4-fluorophenyl)-1,3-dihydroisobenzofuran-5-carbonitrile] | 8.21 | 49 | 
 | CCN(CCCc1c[nH]c2c(F)cccc12)CCCC1(c2ccc(F)cc2)OCc2cc(C#N)ccc21 (stereo not drawn) [Compound 12p, 1-[3-[Ethyl[3-(7-fluoro-1H-indol-3-yl)propyl]amino]propyl]-1-(4-fluorophenyl)-1,3-dihydroisobenzofuran-5carbonitrile] | 7.72 |  | 7.96
 | CCN(CCCc1c[nH]c2ccc(F)cc12)CCCC1(c2ccc(F)cc2)OCc2cc(C#N)ccc21 (stereo not drawn) [Compound 12q, 1-[3-[Ethyl[3-(5-fluoro-1H-indol-3-yl)propyl]amino]propyl]-1-(4-fluorophenyl)-1,3-dihydroisobenzofuran-5carbonitrile] | 7.92 |  | 8.20
 | CN(CCCc1c[nH]c2ccc(Cl)cc12)CCCC1(c2ccc(F)cc2)OCc2cc(C#N)ccc21 (stereo not drawn) [Compound 12r, 1-[3-[[3-(5-Chloro-1H-indol-3-yl)propyl]methylamino]propyl]-1-(4-fluorophenyl)-1,3-dihydroisobenzofuran-5-carbonitrile] | 7.80 | 47 | 
 | CCN(CCCC1(c2ccc(F)cc2)OCc2cc(C#N)ccc21)CCc1c[nH]c2c(Cl)cccc12 (stereo not drawn) [Compound 12s, 1-[3-[[2-(7-Chloro-1H-indol-3-yl)ethyl]ethylamino]propyl]-1-(4-fluorophenyl)-1,3-dihydroisobenzofuran-5-carbonitrile] | 8.11 |  | 7.74
 | CCN(CCCC1(c2ccc(F)cc2)OCc2cc(C#N)ccc21)CCc1c[nH]c2c(F)cc(F)cc12 (stereo not drawn) [Compound 12u, 1-[3-[[2-(5,7-Difluoro-1H-indol-3-yl)ethyl]ethylamino]propyl]-1-(4-fluorophenyl)-1,3-dihydroisobenzofuran-5-carbonitrile] | 8.05 |  | 7.66
 | CCN(CCCCc1c[nH]c2ccc(F)cc12)CCCC1(c2ccc(F)cc2)OCc2cc(C#N)ccc21 (stereo not drawn) [Compound 12v, 1-[3-[[4-(5-Fluoro-1H-indol-3-yl)butyl]ethylamino]propyl]-1-(4-fluorophenyl)-1,3-dihydroisobenzofuran-5-carbonitrile] | 7.41 |  | 7.92
 | CCN(CCCc1c[nH]c2ccc(Cl)cc12)CCCC1(c2ccc(F)cc2)OCc2cc(C#N)ccc21 (stereo not drawn) [Compound 12x, 1-[3-[[3-(5-Chloro-1H-indol-3-yl)propyl]ethylamino]propyl]-1-(4-fluorophenyl)-1,3-dihydroisobenzofuran-5-carbonitrile] | 7.85 | 50 | 
 | C=CCN(CCCC1(c2ccc(F)cc2)OCc2cc(C#N)ccc21)CCc1c[nH]c2ccc(F)cc12 (stereo not drawn) [Compound 13b, 1-[3-[[2-(5-Fluoro-1H-indol-3-yl)ethyl](prop-2-en-1-yl)amino]propyl]-1-(4-fluorophenyl)-1,3-dihydroisobenzofuran-5-carbonitrile] | 8.13 |  | 7.36
 | C=CCN(CCCC1(c2ccc(F)cc2)OCc2cc(C#N)ccc21)CCc1c[nH]c2c(F)cccc12 (stereo not drawn) [Compound 13c, 1-[3-[[2-(7-Fluoro-1H-indol-3-yl)ethyl](prop-2-en-1-yl)amino]propyl]-1-(4-fluorophenyl)-1,3-dihydroisobenzofuran-5-carbonitrile] | 8.02 |  | 7.92
 | C=CCN(CCCc1c[nH]c2ccc(F)cc12)CCCC1(c2ccc(F)cc2)OCc2cc(C#N)ccc21 (stereo not drawn) [Compound 13d, 1-[3-[[3-(5-Fluoro-1H-indol-3-yl)propyl](prop-2-en-1-yl)amino]propyl]-1-(4-fluorophenyl)-1,3-dihydroisobenzofuran-5-carbonitrile] | 7.82 |  | 7.68
 | C=CCN(CCCc1c[nH]c2c(F)cccc12)CCCC1(c2ccc(F)cc2)OCc2cc(C#N)ccc21 (stereo not drawn) [Compound 13e, 1-[3-[[3-(7-Fluoro-1H-indol-3-yl)propyl](prop-2-en-1-yl)amino]propyl]-1-(4-fluorophenyl)-1,3-dihydroisobenzofuran-5-carbonitrile] | 7.66 |  | 7.57
 | C=CCN(CCCC1(c2ccc(F)cc2)OCc2cc(C#N)ccc21)CCc1c[nH]c2ccc(Cl)cc12 (stereo not drawn) [Compound 13f] | 7.51 | 16 | 
 | CCCN(CCCC1(c2ccc(F)cc2)OCc2cc(C#N)ccc21)CCc1c[nH]c2c(F)cc(F)cc12 (stereo not drawn) [Compound 13g, 1-[3-[[2-(5,7-Difluoro-1H-indol-3-yl)ethyl]propylamino]propyl]-1-(4-fluorophenyl)-1,3-dihydroisobenzofuran-5-carbonitrile] | 7.74 | 49 | 
 | C=CCN(CCCC1(c2ccc(F)cc2)OCc2cc(C#N)ccc21)CCc1c[nH]c2c(C)ccc(Cl)c12 (stereo not drawn) [Compound 13j, 1-[3-[[2-(4-Chloro-7-methyl-1H-indol-3-yl)ethyl](prop-2-en-1-yl)amino]propyl]-1-(4-fluorophenyl)-1,3-dihydroisobenzofuran-5-carbonitrile] | 7.80 | 61 | 
